# Results taken from PubChem BioAssay AID248 (DTP/NCI, 2004).
# Where “and” joins values, the source holds several entries; their conditions need not be identical. Equal values may be shown once. Inconclusive results and toxic doses are left out.
# System: L1210 leukemia ip in BDF1 mice, survival T/C
# Experiment: NCI In Vivo Anticancer Drug Screen. Data for tumor model L1210 Leukemia (intraperitoneal) in B6D2F1 (BDF1) mice
# Settings: endpoint: mean survival time, higher = longer survival
# Summary of the method: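 Value reflects the ratio of survival in compound-treated mice to survival in vehicle-treated controls, with both groups carrying the same transplanted tumor.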
# [1] = dose: 100.0 mg/kg/injection, schedule: Q01DX001 (ip), vehicle: carboxymethylcellulose (CMC)
# [2] = dose: 200.0 mg/kg/injection, schedule: Q01DX001 (ip), vehicle: carboxymethylcellulose (CMC)
# [3] = dose: 400.0 mg/kg/injection, schedule: Q01DX001 (ip), vehicle: carboxymethylcellulose (CMC)
# [4] = dose: 100.0 mg/kg/injection, schedule: Q01DX009 (ip), vehicle: saline with Tween-80
# [5] = dose: 200.0 mg/kg/injection, schedule: Q01DX009 (ip), vehicle: saline with Tween-80
# [6] = dose: 400.0 mg/kg/injection, schedule: Q01DX009 (ip), vehicle: saline with Tween-80
structure (smiles),measurement,setting,value
CC1(C)N=C(N)N=C(N)N1c1cccc(OCCOc2ccc(NC(=O)/C=C/C(=O)O)cc2)c1,T/C,[1],101 % of control
same,T/C,[2],97 % of control
same,T/C,[3],94 % of control
CN(C)CCCn1c(=O)c2ccccc2c2ccccc21,T/C,"dose: 50.0 mg/kg/injection, schedule: Q01DX001 (ip), vehicle: saline",101 % of control
same,T/C,"dose: 50.0 mg/kg/injection, schedule: Q01DX015 (ip), vehicle: saline",98 % of control
same,T/C,"dose: 100.0 mg/kg/injection, schedule: Q01DX001 (ip), vehicle: saline",103 % of control
same,T/C,"dose: 100.0 mg/kg/injection, schedule: Q01DX015 (ip), vehicle: saline",108 % of control
O=C1CCN/C(=N\[N+](=O)[O-])N1,T/C,"dose: 100.0 mg/kg/injection, schedule: Q01DX001 (ip), vehicle: saline with Tween-80",101 % of control
same,T/C,"dose: 200.0 mg/kg/injection, schedule: Q01DX001 (ip), vehicle: saline with Tween-80",106 % of control
O=C(Nc1ccccc1Cl)NC1CCCCC1,T/C,"dose: 100.0 mg/kg/injection, schedule: Q01DX009 (ip), vehicle: Klucel (hydroxypropylcellulose) (HPC)",100 % of control
same,T/C,"dose: 100.0 mg/kg/injection, schedule: Q04DX002 (ip), vehicle: Klucel (hydroxypropylcellulose) (HPC)",95 % of control
same,T/C,"dose: 200.0 mg/kg/injection, schedule: Q01DX009 (ip), vehicle: Klucel (hydroxypropylcellulose) (HPC)",97 % of control
same,T/C,"dose: 200.0 mg/kg/injection, schedule: Q04DX002 (ip), vehicle: Klucel (hydroxypropylcellulose) (HPC)",100 % of control
same,T/C,"dose: 400.0 mg/kg/injection, schedule: Q01DX009 (ip), vehicle: Klucel (hydroxypropylcellulose) (HPC)",91 % of control
same,T/C,"dose: 400.0 mg/kg/injection, schedule: Q04DX002 (ip), vehicle: Klucel (hydroxypropylcellulose) (HPC)",95 % of control
Cc1cc(N(CCCl)CCCl)ccc1N=Nc1ccccc1C(=O)[O-].Cc1cc(N(CCCl)CCCl)ccc1N=Nc1ccccc1C(=O)[O-].[Cu+2],T/C,"dose: 2.0 mg/kg/injection, schedule: Q01DX015 (ip), vehicle: carboxymethylcellulose (CMC)",111 % of control
same,T/C,"dose: 4.0 mg/kg/injection, schedule: Q01DX015 (ip), vehicle: carboxymethylcellulose (CMC)",117 % of control
same,T/C,"dose: 8.0 mg/kg/injection, schedule: Q01DX015 (ip), vehicle: carboxymethylcellulose (CMC)",120 % of control
same,T/C,"dose: 15.0 mg/kg/injection, schedule: Q01DX015 (ip), vehicle: carboxymethylcellulose (CMC)",123 % of control
CCCNC(c1ccccc1)=[N+]1CCCCC1,T/C,"dose: 12.5 mg/kg/injection, schedule: Q04DX002 (ip), vehicle: saline",95 % of control
same,T/C,"dose: 25.0 mg/kg/injection, schedule: Q04DX002 (ip), vehicle: saline",98 % of control
O=S(=O)(/C=C(/Cl)c1ccccc1)c1ccccc1,T/C,"dose: 25.0 mg/kg/injection, schedule: Q01DX009 (ip), vehicle: acetone",92 % of control
same,T/C,"dose: 50.0 mg/kg/injection, schedule: Q01DX009 (ip), vehicle: acetone",90 % of control
same,T/C,"dose: 100.0 mg/kg/injection, schedule: Q01DX001 (ip), vehicle: acetone",101 % of control
same,T/C,"dose: 100.0 mg/kg/injection, schedule: Q04DX003 (ip), vehicle: acetone",103 % of control
same,T/C,"dose: 200.0 mg/kg/injection, schedule: Q01DX001 (ip), vehicle: acetone",102 % of control
same,T/C,"dose: 400.0 mg/kg/injection, schedule: Q01DX001 (ip), vehicle: acetone",104 % of control
C[CH2][Pb]([CH2]C)([CH2]C)[S]c1ccccn1,T/C,"dose: 25.0 mg/kg/injection, schedule: Q04DX002 (sc), vehicle: olive oil, sesame oil, peanut oil",95 % of control
same,T/C,"dose: 50.0 mg/kg/injection, schedule: Q04DX002 (sc), vehicle: olive oil, sesame oil, peanut oil",100 % of control
same,T/C,"dose: 100.0 mg/kg/injection, schedule: Q04DX002 (sc), vehicle: olive oil, sesame oil, peanut oil",100 % of control
Nc1c(Br)cc2c(c1Br)Cc1cc(Cl)ccc1-2,T/C,"dose: 50.0 mg/kg/injection, schedule: Q01DX001 (ip), vehicle: carboxymethylcellulose (CMC)",93 % of control
same,T/C,[1],98 % of control
same,T/C,[2],93 % of control
same,T/C,[3],93 % of control
Nc1ncnc2c1c(C(=O)NO)cn2C1OC(CO)C(O)C1O (stereo not drawn),T/C,"dose: 6.25 mg/kg/injection, schedule: Q01DX009 (ip), vehicle: saline",153 % of control
same,T/C,"dose: 12.5 mg/kg/injection, schedule: Q01DX009 (ip), vehicle: saline",156 % of control and 171 % of control
same,T/C,"dose: 25.0 mg/kg/injection, schedule: Q01DX005 (ip), vehicle: saline",108 % of control
Cc1cccc(/C(=C/c2ccc([N+](=O)[O-])cc2)C(=O)Nc2ccc(S(=O)(=O)F)cc2)c1,T/C,[4],96 % of control
same,T/C,[5],97 % of control
same,T/C,[6],96 % of control
CCOC(=O)CN(C(=O)OCC)C(OCC)OCC,T/C,[4],95 % of control
same,T/C,[5],104 % of control
same,T/C,[6],93 % of control
